Patent US8992815B2, “Production of organic compound nanoparticles with high repetition rate ultrafast pulsed laser ablation in liquids” (IMRA America, Inc., priority 2010, dated 2015)
Where two headings read alike, the source gives them in different places.

What was measured:
[1] = Solubility of curcumin in water and methanol; type: physicochemical
From the text: In a first experiment curcumin powder, purchased from Sigma Aldrich, was used as the organic source material. The curcumin powder was formed into a pellet of target material by compression in a 0.5 inch in diameter mold using three tons of pressure. The curcumin pellet was then ablated according to the present invention using deionized water as the liquid. The flow rate of the liquid in the container was about 80 milliliters per second. The curcumin pellet was ablated using an ultrafast pulsed laser having a wavelength of 1045 nanometers, using a pulse duration of 500 femtoseconds, a pulse energy of 1 microJoules, a power of 1 W and a pulse repetition rate of 1 MHz. The laser focus spot size was about 30 micrometers in diameter and the fluence is calculated at about 0.14 Joules/cm^2. The frequency of the vibrating mirror was 50 Hz with a 4 millimeter trace for 0.4 meters per second. […] The hydrocolloidal contains some large particles as evidenced by the spread of the peak and the background absorbance of the curve. The y-axis is the absorption and the x-axis is the wavelength. […] In addition, 0.1 milliliters of the curcumin nanoparticle hydrocolloidal prepared according to the present invention was mixed with 1.0 milliliters of methanol. […]

[2] = background statement; cited from earlier work

solubility in methanol ([1]; methanol, powder dissolved at 2.5×10^−5 M): dissolvable in methanol
solubility in water ([1]; water): does not dissolve in water
Structure (SMILES): COc1cc(C=CC(=O)CC(=O)C=Cc2ccc(O)c(OC)c2)ccc1O [curcumin, 1,7-bis(4-hydroxy-3-methoxyphenyl)-1,6-heptadiene-3,5-dione]
solubility in water [2]: not water soluble
